{
  "source": "paper PMC9995496",
  "about": "“A screen for MeCP2-TBL1 interaction inhibitors using a luminescence-based assay” (Scientific Reports, 2023)",
  "note": "Where a name gives a salt, the structure may show the parent alone.",
  "data": [
    {"test_system": "PRKACA-PRKAR2A interaction (SmBiT-PRKACA / LgBiT-PRKAR2A), protein kinase A", "design": "NanoLuc complementation counter-screen in cell extract, PRKACA with PRKAR2A, loss of luminescence, detects NanoLuc interference", "conditions": "counter-screen for NanoLuc interference, 0.5 h, 20 µM, inhibitor, Inh (PKA)", "units": {"Inh (PKA)": "%"}, "values": [
      {"smiles": "CNC(=O)c1cc(Oc2ccc(NC(=O)Nc3ccc(Cl)c(C(F)(F)F)c3)c(F)c2)ccn1", "note": "[UM0141611:01, Regorafenib monohydrate]", "Inh (PKA)": 6.023},
      {"smiles": "CCC(CC)[C@H](NC(C)=O)[C@@H]1[C@H](O)[C@@H](C(=O)O)C[C@H]1NC(=N)N", "note": "[UM0142420:01, Peramivir Trihydrate]", "Inh (PKA)": 0.7131}
    ]},
    {"test_system": "PRKACA-PRKAR2A interaction (SmBiT-PRKACA / LgBiT-PRKAR2A), protein kinase A", "design": "NanoLuc complementation counter-screen in cell extract, PRKACA with PRKAR2A, loss of luminescence, detects NanoLuc interference", "conditions": "counter-screen for NanoLuc interference; 0.5 h, 20 µM; inhibitor", "units": {"Inh (PKA)": "%"}, "values": [
      {"smiles": "Nc1ccc2ncnc(NCCc3ccc(Oc4ccccc4)cc3)c2c1", "note": "[UM0127892:02, QNZ (EVP4593)]", "Inh (PKA)": 24.11},
      {"smiles": "Cc1cnc(Nc2ccc(N3CCN(C)CC3)cc2)nc1Nc1cccc(S(=O)(=O)NC(C)(C)C)c1", "note": "[UM0141731:01, TG101209]", "Inh (PKA)": 36.26},
      {"smiles": "C#Cc1cccc(Nc2ncnc3cc(OC)c(OCCCCCCC(=O)NO)cc23)c1", "note": "[UM0141699:01, CUDC-101]", "Inh (PKA)": 11.72},
      {"smiles": "CC1=CC(=O)c2c(O)cccc2C1=O", "note": "[UM0133960:02, Plumbagin]", "Inh (PKA)": 19.95},
      {"smiles": "Nc1cccc2c1CN(C1CCC(=O)NC1=O)C2=O", "note": "(stereo not drawn) [UM0130980:03, Lenalidomide (CC-5013)]", "Inh (PKA)": -1.488},
      {"smiles": "CN1CCC(Nc2nc(Nc3ccc(Oc4ccccc4)cc3)c3c(=O)[nH]cc(Br)c3n2)CC1", "note": "[UM0142146:01, G-749]", "Inh (PKA)": 37.05},
      {"smiles": "Cc1cnc(Nc2ccc(F)cc2Cl)nc1-c1c[nH]c(C(=O)N[C@H](CO)c2cccc(Cl)c2)c1", "note": "[UM0141646:01, VX-11e]", "Inh (PKA)": 14.62},
      {"smiles": "CO[C@@]12[C@H](COC(N)=O)C3=C(C(=O)C(C)=C(N)C3=O)N1C[C@@H]1N[C@@H]12", "note": "[UM0133761:02, Mitomycin C]", "Inh (PKA)": 0.5965},
      {"smiles": "CN(C)CCOc1ccc(/C(=C(/CCCl)c2ccccc2)c2ccccc2)cc1", "note": "[UM0133287:02, Toremifene Citrate]", "Inh (PKA)": 53.21},
      {"smiles": "COc1ccc([C@]2(C#N)CC[C@@H](C(=O)O)CC2)cc1OC1CCCC1", "note": "[UM0141787:01, Cilomilast]", "Inh (PKA)": 0.1397},
      {"smiles": "O=C(O)C(O)C(O)C(=O)O", "note": "(stereo not drawn) [UM0142810:01, Sodium tartrate]", "Inh (PKA)": 0.7692},
      {"smiles": "COC(=O)[C@@H](N)CCCNC(=N)N[N+](=O)[O-]", "note": "[UM0141561:05, L-NAME hydrochloride]", "Inh (PKA)": -1.626},
      {"smiles": "O=c1oc2cc(O)ccc2s1", "note": "[UM0120621:02, Tioxolone]", "Inh (PKA)": 1.741},
      {"smiles": "CCN(CC)CCOC(=O)C(c1ccccc1)c1ccccc1", "note": "[UM0118069:03, Adiphenine HCl]", "Inh (PKA)": 2.953},
      {"smiles": "CC(C(=O)O)c1ccc2c(c1)[nH]c1ccc(Cl)cc12", "note": "(stereo not drawn) [UM0142344:01, Carprofen]", "Inh (PKA)": 82.74},
      {"smiles": "Cc1ncc(-c2ccnc(Nc3ccc(S(C)(=O)=O)cc3)n2)n1C(C)C", "note": "[UM0141991:01, AZD-5438]", "Inh (PKA)": 13.33},
      {"smiles": "N#Cc1ccc(COC[C@H]2O[C@@H](n3c(NCc4ccc(Cl)c(Cl)c4)nc4c(N)ncnc43)[C@H](O)[C@@H]2O)cc1", "note": "[UM0141827:01, VER 155008]", "Inh (PKA)": 36.57},
      {"smiles": "CCCC(C)NC(=O)c1ccc(Cl)c(Cl)c1", "note": "(stereo not drawn) [UM0141680:01, NSC 405020]", "Inh (PKA)": 15.79},
      {"smiles": "C[C@]12CC[C@H](O)CC1=CC[C@@H]1[C@@H]2CC[C@]2(C)C(n3cnc4ccccc43)=CC[C@@H]12", "note": "[UM0142098:01, TOK-001]", "Inh (PKA)": 15.03},
      {"smiles": "Cc1cnc(Nc2ccc(OCCN3CCCC3)cc2)nc1Nc1cccc(S(=O)(=O)NC(C)(C)C)c1", "note": "[UM0136753:02, TG101348 (SAR302503)]", "Inh (PKA)": 24.97},
      {"smiles": "O=C1CCc2cc(OCCCCc3nnnn3C3CCCCC3)ccc2N1", "note": "[UM0119639:03, Cilostazol]", "Inh (PKA)": 4.034},
      {"smiles": "NC(=S)N/N=C/c1ncccc1N", "note": "[UM0142496:01, Triapine]", "Inh (PKA)": 0.417},
      {"smiles": "O=C(Nc1ccc(CN2CCOCC2)cc1)c1ccc(-c2cccc(Cl)c2)o1", "note": "[UM0141958:01, CID 2011756]", "Inh (PKA)": 20.99},
      {"smiles": "CC(C)Nc1cc(-c2c[nH]c(C(=O)N[C@H](CO)c3cccc(Cl)c3)c2)c(Cl)cn1", "note": "[UM0142171:01, VRT752271]", "Inh (PKA)": 17.24},
      {"smiles": "COC1=C2C[C@@H](C)C[C@H](OC)[C@H](O)[C@@H](C)/C=C(\\C)[C@H](OC(N)=O)[C@@H](OC)/C=C\\C=C(/C)C(=O)NC(=CC1=O)C2=O", "note": "[UM0141686:01, Geldanamycin]", "Inh (PKA)": 5.017},
      {"smiles": "C=C(C)[C@@H]1CC[C@]2(C(=O)O)CC[C@]3(C)[C@H](CC[C@@H]4[C@@]5(C)CC[C@H](O)C(C)(C)[C@@H]5CC[C@]43C)[C@@H]12", "note": "[UM0118149:03, Betulinic acid]", "Inh (PKA)": 14.84},
      {"smiles": "COc1ncc(-c2ccc3nccc(-c4ccnnc4)c3c2)cc1NS(=O)(=O)c1ccc(F)cc1F", "note": "[UM0142087:01, GSK2126458]", "Inh (PKA)": 7.374},
      {"smiles": "NC(=O)Nc1cc(-c2cccc(F)c2)sc1C(=O)N[C@H]1CCCNC1", "note": "[UM0139975:02, AZD7762]", "Inh (PKA)": 35.89},
      {"smiles": "CCOc1cc2ncc(C#N)c(Nc3ccc(F)c(Cl)c3)c2cc1NC(=O)/C=C/CN(C)C", "note": "[UM0141415:01, Pelitinib (EKB-569)]", "Inh (PKA)": 20},
      {"smiles": "C[C@H](CCC(=O)O)[C@H]1CC[C@H]2[C@@H]3CC[C@@H]4C[C@H](O)CC[C@]4(C)[C@H]3C[C@H](O)[C@]12C", "note": "[UM0142850:01, Deoxycholic acid]", "Inh (PKA)": 5.283},
      {"smiles": "COc1ccc(C(=O)CC2(O)C(=O)Nc3c(Cl)ccc(Cl)c32)cc1", "note": "(stereo not drawn) [UM0141653:01, YK-4-279]", "Inh (PKA)": 4.248},
      {"smiles": "Nc1ccc(/C=C/C(=O)NCc2cc3cc(-c4ccc(C(=O)N5CCC(F)(F)CC5)cc4)cc(-c4ccc(F)cc4)c3o2)cn1", "note": "[UM0142694:01, KPT-9274]", "Inh (PKA)": 5.106},
      {"smiles": "N#C/C(=C(/N)Sc1ccc(N)cc1)c1ccccc1C(F)(F)F", "note": "[UM0127888:02, SL-327]", "Inh (PKA)": 49.94},
      {"smiles": "Cc1nn(C)c2c1C(c1ccc(C(F)(F)F)cc1)C(C#N)=C(N)O2", "note": "(stereo not drawn) [UM0142152:01, BQU57]", "Inh (PKA)": 14.94},
      {"smiles": "NS(=O)(=O)c1cc(Cl)c(Cl)c(S(N)(=O)=O)c1", "note": "[UM0118893:03, Dichlorphenamide]", "Inh (PKA)": -0.9742},
      {"smiles": "COCCCC/C(=N\\OCCN)c1ccc(C(F)(F)F)cc1", "note": "[UM0133722:02, Fluvoxamine maleate]", "Inh (PKA)": 2.345},
      {"smiles": "NC(=O)c1ccc(-c2nc(-c3ccccn3)c(-c3ccc4c(c3)OCO4)[nH]2)cc1", "note": "[UM0141970:01, SB 431542]", "Inh (PKA)": 22.36},
      {"smiles": "CCc1c(C(=O)NCCc2ccc(N3CCCCC3)cc2)[nH]c2ccc(Cl)cc12", "note": "[UM0142252:01, Org 27569]", "Inh (PKA)": 10.23},
      {"smiles": "C[C@H]1CCC/C=C/[C@@H]2C[C@H](O)C[C@H]2[C@H](O)/C=C/C(=O)O1", "note": "[UM0133745:02, Brefeldin A]", "Inh (PKA)": 1.414},
      {"smiles": "CCS(=O)(=O)c1cccc(-c2cc(C(=O)NC3CCN(C)CC3)c(C)c3[nH]c4ncc(C)cc4c23)c1", "note": "[UM0141721:01, TAK-901]", "Inh (PKA)": 28.15},
      {"smiles": "Cn1cc(C2=C(c3cn(CCCSC(=N)N)c4ccccc34)C(=O)NC2=O)c2ccccc21", "note": "[UM0142439:01, Ro 31-8220 Mesylate]", "Inh (PKA)": 76.02},
      {"smiles": "O=C(NCC(=O)N1CCCC1)Nc1ccc2cnccc2c1", "note": "[UM0142726:01, SGC707]", "Inh (PKA)": 9.797},
      {"smiles": "COc1cc2c(NC3CCN(C4CCCCC4)CC3)nc(N3CCCN(C(C)C)CC3)nc2cc1OCCCN1CCCCC1", "note": "[UM0129939:02, UNC 0646]", "Inh (PKA)": 0.2399},
      {"smiles": "Cc1cc(C)c(CNC(=O)c2cc(-c3ccc(N4CCN(C)CC4)nc3)cc3c2c(C)cn3C(C)C)c(=O)[nH]1", "note": "[UM0142656:01, GSK503]", "Inh (PKA)": 4.717},
      {"smiles": "COc1cc(/C=C/C(=O)CC(=O)/C=C/c2ccc(O)c(OC)c2)ccc1O", "note": "[UM0141535:01, Curcumin]", "Inh (PKA)": 70.09},
      {"smiles": "COc1c(N2C[C@@H]3CCCN[C@@H]3C2)c(F)cc2c(=O)c(C(=O)O)cn(C3CC3)c12", "note": "[UM0141881:01, Moxifloxacin HCl]", "Inh (PKA)": 1.366}
    ]}
  ]
}
